Test results as given in patent US20070293666A1, “Optical Filter and Its Applications, and Porphyrin Compound Used in Optical Filter” (Mitsui Chemicals, Inc., priority 2004, published 2007).

What was measured:
Assay type in all cases: physicochemical
[1] = Absorption spectrum in chloroform (maximum absorption wavelength, gram absorption coefficient, 550/525 nm coefficient ratio); conditions: chloroform solution
Description: (§1) Compounds represented by the compound Nos. 1-1, 1-2, 1-3, 1-4 and 1-7 (Table 1-1) were synthesized in the same manner as in Examples 1-1 and 1-2. With respect to compounds synthesized in Example 1-2 and Synthesis Example 1-1 along with these compounds, the maximum absorption wavelength (λmax), the gram absorption coefficient (εg) and solubility were measured.
(§2) λmax and εg are values in the chloroform solution, while the solubility is weight % based on acetone.
With respect to the compounds represented by the compound Nos. 1-2, 1-3, 1-6 and 1-7 synthesized in Examples 1-2 and 1-3 (corresponding to compounds (3-B), (3-C), (3-E) and (3-F) respectively) along with the obtained compound (3-A), the maximum absorption wavelength and the ratio of the absorption coefficient at a wavelength of 550 nm to the absorption coefficient at a wavelength of 525 nm, which were measured in a chloroform solvent, are shown in Table 3-1. [drawing 26] [drawing 27] [drawing 28] [drawing 29]

[2] = Solubility in acetone; design: key: ∘: completely dissolved; x: not completely dissolved
Description: as §1, §2

[3] = Light transmittance of spin-coated optical filter (acrylic adhesive on glass plate); conditions: 0.1 weight % dye diluting agent mixed with acrylic adhesive, dry film 5 μm
Description: (§3) A compound represented by the compound No. 1-4 (Table 1-1) was dissolved in a mixed solvent of acetone and toluene (weight ratio 50:50) such that the concentration was 0.1 weight % to give a dye-containing diluting agent. An acrylic adhesive and the dye-containing diluting agent (weight ratio 50:70) were mixed and applied by spin coating at 800 rpm for 30 seconds onto a glass plate, and the resulting material was dried to prepare an optical filter. The dry film thickness of the coating layer was 5 μm. In the above filter, light transmittance was measured by using a spectrophotometer (UV-3100, manufactured by Shimadzu Corporation). Light transmittance in a wavelength of 550 nm was 47.2%.
as §3, with “2-12” for “1-4”, “2-2) synthesized in the same manner as in Examples 2-1 and 2-2” for “1-1)”, “plate” for “plate,”, “Light transmittance in a wavelength of 550 nm was 47.2%.” left out

εg (gram absorption coefficient) [1]: 115,000
λmax [1]: 552 nm
Solubility 0.1% ([2]; 0.1 weight % based on acetone): ∘
Solubility 0.2% ([2]; 0.2 weight % based on acetone): ∘
Solubility 1.0% ([2]; 1.0 weight % based on acetone): ∘
Light transmittance in a wavelength of 550 nm [3]: 47.2%
Compound: CCCCCCCCCCOc1ccc(C2=c3nc(c4c5cccc6cccc(c3=4)c65)C(c3ccc(OCCCCCCCCCC)cc3)=c3c4c(c5[n]3[Cu][n]3c2c2c(c3C(c3ccc(OCCCCCCCCCC)cc3)=c3nc(c6c7cccc8cccc(c3=6)c87)C=5c3ccc(OCCCCCCCCCC)cc3)-c3cccc5cccc-2c35)-c2cccc3cccc-4c23)cc1 [1-4]
